PubChem BioAssay (NCI)
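Interpolation was linear, between the two tested concentrations surrounding the appropriate level; five concentrations were tested over 48 hours in 96-well plates. TGI: total growth inhibition.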

How the values were obtained:
Test in all cases: NCI-60 cell line screen, 48 h
[1] = test system: EKVX NSCLC
[2] = test system: SR leukemia
[3] = test system: HL-60(TB) leukemia
[4] = test system: OVCAR-5 ovarian
[5] = test system: RPMI-8226 leukemia
[6] = test system: SK-MEL-2 melanoma
[7] = test system: SK-OV-3 ovarian
[8] = test system: COLO 205 colon
[9] = test system: SK-MEL-5 melanoma
[10] = test system: NCI-H23 lung
[11] = test system: NCI-H226 lung
[12] = test system: U251 CNS
[13] = test system: HCT-116 colon
[14] = test system: SNB-75 CNS
[15] = test system: SF-539 CNS
[16] = test system: HCT-15 colon
[17] = test system: OVCAR-8 ovarian
[18] = test system: ACHN renal
[19] = test system: A498 renal
[20] = test system: MOLT-4 leukemia

Nc1ccccc1Sc1ccc(Cl)cc1
TGI [1]: 76.9 µM | TGI [2]: 57.8 µM | TGI [3]: 53.3 µM | TGI [4]: > 100 µM | TGI [5]: 67.9 µM | TGI [6]: 87.8 µM | TGI [7]: > 100 µM | TGI [8]: 44.1 µM | TGI [9]: 32 µM | TGI [10]: 64.4 µM | TGI [11]: 26.2 µM | TGI [12]: 36.2 µM | TGI [13]: > 100 µM | TGI [14]: 88.9 µM | TGI [15]: > 100 µM | TGI [16]: > 100 µM | TGI [17]: > 100 µM | TGI [18]: 99.2 µM | TGI [19]: > 100 µM

COc1cccc(NC(=O)N/C(=C/c2ccc(N(CCC#N)CCC#N)cc2)NC(=O)c2cc([N+](=O)[O-])ccc2Cl)c1
TGI [1]: > 100 µM | TGI [2]: > 100 µM | TGI [20]: > 100 µM | TGI [4]: > 100 µM | TGI [5]: > 100 µM | TGI [6]: > 100 µM | TGI [7]: > 100 µM | TGI [8]: > 100 µM | TGI [9]: > 100 µM | TGI [10]: > 100 µM | TGI [11]: > 100 µM | TGI [12]: > 100 µM | TGI [13]: > 100 µM | TGI [15]: > 100 µM | TGI [16]: > 100 µM | TGI [17]: > 100 µM | TGI [18]: > 100 µM

Cc1cc(S(N)(=O)=O)c(S/C(=N\Nc2ccc([N+](=O)[O-])cc2)c2ccc(Cl)cc2)cc1Cl
TGI [1]: 28.3 µM | TGI [2]: 9.01 µM | TGI [3]: > 100 µM | TGI [20]: > 100 µM | TGI [5]: 28.3 µM | TGI [6]: 9.58 µM | TGI [7]: 3.93 µM | TGI [8]: > 100 µM | TGI [9]: 33.3 µM | TGI [10]: 4.91 µM | TGI [11]: 6.57 µM | TGI [12]: 5.41 µM | TGI [13]: > 100 µM | TGI [14]: 4.01 µM | TGI [15]: 4.19 µM | TGI [16]: 77.9 µM | TGI [18]: 10.4 µM | TGI [19]: 21.8 µM

C/C(=C1/N=C(c2cc([N+](=O)[O-])ccc2Cl)N(C2=CC=C(Cl)CC2)C1=O)c1cc2ccccc2oc1=O
TGI [1]: > 100 µM | TGI [2]: > 100 µM | TGI [3]: > 100 µM | TGI [20]: > 100 µM | TGI [4]: > 100 µM | TGI [5]: > 100 µM | TGI [7]: > 100 µM | TGI [8]: > 100 µM | TGI [9]: > 100 µM | TGI [10]: 58.8 µM | TGI [11]: > 100 µM | TGI [12]: > 100 µM | TGI [13]: > 100 µM | TGI [14]: > 100 µM | TGI [15]: > 100 µM | TGI [17]: > 100 µM | TGI [18]: > 100 µM | TGI [19]: > 100 µM

C=CCN1C(=O)/C(=C/c2cccs2)N=C1SC1OC(COC(=O)c2ccccc2)C(OC(=O)c2ccccc2)C1OC(=O)c1ccccc1 (configuration not stated)
TGI [1]: > 100 µM | TGI [2]: > 100 µM | TGI [3]: > 100 µM | TGI [20]: > 100 µM | TGI [4]: > 100 µM | TGI [5]: > 100 µM | TGI [6]: > 100 µM | TGI [7]: > 100 µM | TGI [8]: > 100 µM | TGI [9]: > 100 µM | TGI [10]: > 100 µM | TGI [11]: > 100 µM | TGI [12]: > 100 µM | TGI [14]: > 100 µM | TGI [15]: > 100 µM | TGI [16]: > 100 µM | TGI [17]: > 100 µM | TGI [18]: > 100 µM | TGI [19]: > 100 µM

C=C1C(C[C@@H]2O[C@H]3C[C@H]4O[C@@]5(C[C@@H]6O[C@]7(C[C@H](C)[C@@H]8O[C@@H]9CC(C(O)CO)O[C@@H]9C[C@@H]8O7)C[C@H](C)[C@@H]6O5)C[C@H]4O[C@H]3[C@H](C)[C@H]2O)O[C@@H](CC[C@@H]2O[C@@H](CC[C@@]34CC5O[C@H]6C(O[C@H]7CC[C@H](CC(=O)OC)O[C@@H]7[C@@H]6O3)[C@H]5O4)CC2=C)C[C@H]1C (some centres not stated)
TGI [1]: > 1 µM | TGI [2]: > 1 µM | TGI [3]: > 1 µM | TGI [20]: > 1 µM | TGI [4]: > 1 µM | TGI [7]: > 1 µM | TGI [8]: 0.0035 µM | TGI [9]: 0.0559 µM | TGI [11]: 0.0248 µM | TGI [12]: > 1 µM | TGI [14]: > 1 µM | TGI [16]: 0.0209 µM | TGI [17]: 0.0125 µM | TGI [18]: > 1 µM

O=C(COC(=O)c1ccccc1)c1ccc(Br)cc1
TGI [1]: 28 µM | TGI [2]: 7.11 µM | TGI [3]: 48.2 µM | TGI [20]: 15 µM | TGI [4]: 22.8 µM | TGI [5]: 16.9 µM | TGI [6]: 28.2 µM | TGI [7]: 33.3 µM | TGI [8]: 26.5 µM | TGI [9]: 27.5 µM | TGI [10]: 49.2 µM | TGI [12]: 27.3 µM | TGI [13]: 30.2 µM | TGI [14]: 29.9 µM | TGI [15]: 28.4 µM | TGI [16]: 35.1 µM | TGI [17]: > 100 µM | TGI [18]: 65.9 µM | TGI [19]: 29.5 µM

O=S(=O)(O)c1ccc(N=Nc2ccc(N=Nc3ccc(/C=C/c4ccc(N=[N+]([O-])c5ccc(/C=C/c6ccc(N=Nc7ccc(N=Nc8ccc(S(=O)(=O)O)cc8)c8ccccc78)cc6S(=O)(=O)O)c(S(=O)(=O)O)c5)cc4S(=O)(=O)O)c(S(=O)(=O)O)c3)c3ccccc23)cc1
TGI [1]: > 100 µM | TGI [3]: > 100 µM | TGI [20]: > 100 µM | TGI [4]: > 100 µM | TGI [5]: > 100 µM | TGI [6]: > 100 µM | TGI [7]: > 100 µM | TGI [8]: > 100 µM | TGI [9]: > 100 µM | TGI [10]: > 100 µM | TGI [11]: > 100 µM | TGI [12]: > 100 µM | TGI [13]: > 100 µM | TGI [14]: > 100 µM | TGI [15]: > 100 µM | TGI [16]: > 100 µM | TGI [17]: > 100 µM | TGI [19]: > 100 µM
